Data set [1] can be described thus: in vivo. Conditions: Sprague-Dawley, rat, po, 10 mg/kg.
The nature of data set [2]: in vivo. Conditions: Sprague-Dawley, rat, po, 10 mg/kg. This is another data set of the same source.
Data set [3] is described as follows: in vivo. Conditions: Sprague-Dawley, rat, po, 10 mg/kg. This is another data set of the same source.
Data set [4] is described as follows: in vivo. Conditions: Sprague-Dawley, rat, iv, 1 mg/kg.
Data set [5] can be described thus: in vivo. Conditions: Sprague-Dawley, rat, iv, 1 mg/kg. This is another data set of the same source.
Data set [6] can be described thus: in vivo. Conditions: Sprague-Dawley, rat, po, 10 mg/kg. This is another data set of the same source.
A short description of data set [7]: in vivo. Conditions: Sprague-Dawley, rat, po, 10 mg/kg. The source holds these as a separate data set.
A short description of data set [8]: in vivo. Conditions: Sprague-Dawley, rat, po, 10 mg/kg. The source holds these as a separate data set.
Data set [9] is described as follows: in vivo. Conditions: Sprague-Dawley, rat, iv, 1 mg/kg. This is another data set of the same source.
Data set [10] can be described thus: in vivo. Conditions: Sprague-Dawley, rat, iv, 1 mg/kg. This is another data set of the same source.
Data set [11] is described as follows: in vivo. Conditions: Sprague-Dawley, rat, iv, 1 mg/kg. This is another data set of the same source.
Data set [12] is described as follows: in vivo. Conditions: Sprague-Dawley, rat, po, 10 mg/kg. This is another data set of the same source.
Data set [13] in a line: in vivo. Conditions: Sprague-Dawley, rat, iv, 1 mg/kg. The source holds these as a separate data set.

The values below come from ChEMBL document CHEMBL5338765, “Discovery of Potent and Wild-Type-Sparing Fourth-Generation EGFR Inhibitors for Treatment of Osimertinib-Resistance NSCLC” (J Med Chem, 2023).

Usually Tmax stands for the time from dosing to the highest level. As a reminder, the MRT inf is a mean duration of stay, worked out from the concentration-time curve. As usually defined, the AUC(0-inf) is total exposure, with the tail of the curve extrapolated. High values mean more exposure, low ones less exposure. As usually defined, the clearance is the volume of plasma or blood freed of the substance per unit of time. The low end stands for inefficient removal, the high end for efficient removal. In general, half-life refers to how long it takes for the measured level to halve. Read a high half-life as slow loss. One may read the Cmax as the highest concentration seen after dosing. As a reminder, the bioavailability is the share of a dose that reaches the circulation, judged against a reference dose that is usually intravenous. Read a high bioavailability as much systemic uptake. One may read the CL/F as the apparent clearance, not corrected for the fraction that reaches the circulation.

`CCS(=O)(=O)n1cc(-c2nc(Nc3ccc4c(ccn4CCN(C)C)c3)ncc2C(F)(F)F)c2ccccc21`: the figures for the Tmax at 24 h in data set [1] and in data set [13] were 8 h and 4.8 min, respectively. Also, the MRT inf at 24 h in data set [2] came to 9.62 h; in [4] it was 4.33 h. Besides, the AUC(0-inf) at 24 h in data set [3] was 678 ng·h/mL; in data set [10], 242 ng·h/mL. In data set [5], the clearance at 24 h is 70.2 mL/min/kg. Also, the half-life at 24 h is 5.37 h in [6] and 3.67 h in data set [9]. In addition, the Cmax at 24 h in data set [7] was 54.7 ng/mL; in data set [11], 130 ng/mL. In data set [8], the bioavailability at 24 h worked out at 28.1%. For the same compound, the CL/F at 24 h in [12] was 278 mL/min/kg.
